Source: paper PMC9784403 (Pharmaceuticals, 2022)
Several values for one entry are separate records, joined by “and”; a condition that tells them apart may be missing. Equal values may be shown once.

Columns and labels:
σ2R/TMEM97 [1] = molecular target: T1, σ2R/TMEM97 (Rattus norvegicus, UniProt Q5U3Y7); type: binding; parameters: from tissue; host or cells: liver membranes of Sprague-Dawley rats
T1 sequence (Q5U3Y7 1-176): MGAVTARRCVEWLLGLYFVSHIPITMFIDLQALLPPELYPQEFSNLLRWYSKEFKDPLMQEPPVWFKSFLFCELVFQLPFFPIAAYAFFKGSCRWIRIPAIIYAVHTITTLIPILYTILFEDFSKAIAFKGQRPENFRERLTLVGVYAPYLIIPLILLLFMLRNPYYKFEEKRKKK
Procedure: All Kd and Bmax values were calculated via a nonlinear regression method using Prism, and the protein concentrations were determined using Lowry et al.’s method with BSA as the standard.

[2] = system: TMEM97-knocked out HeLa cells; parameters: method as in PMID 30443021; settings: cited from earlier work
σ2R/TMEM97 [3] = molecular target: T1, σ2R/TMEM97; test: Competitive receptor binding assay with [3H]DTG (σ1R masked with (+)-pentazocine)
Procedure: After incubation, the bound ligands were filtered using an M-24 Brandel filtration system (Brandel, Gaithersburg, MD, USA), collected on glass fiber paper (Whatman grade 934-AH, GE Healthcare Bio-Sciences, Pittsburgh, PA, USA), and counted using a MicroBeta2 Microplate counter 2450 (Perkin Elmer, Boston, MA, USA) or Wizard2 Automatic Gamma Counter 2470 (Perkin Elmer, Boston, MA, USA). The inhibition constant [14] values of the tested ligands were determined using the Cheng and Prussoff equation [35], and the mean Ki values ± SEM were reported for at least three independent experiments.

σ2R/TMEM97 [4] = molecular target: T1, σ2R/TMEM97; test: Competitive receptor binding assay with [125I]RHM-4
Procedure: Briefly, the livers of female SD rats (Rockland, ME, USA) were dissected and homogenized using a Wheaton overhead stirrer (120 Vac Overhead Stirrer, Millville, NJ, USA) in 10 mL/g tissue weight of ice-cold 10mM Tris-HCl/0.32M Sucrose, pH 7.4. The crude homogenate was centrifuged for 10 min at 1000× g at 4 °C, the pellets were discarded, and the supernatant was further centrifuged at 31,000× g for 20 min at 4 °C. The supernatant was discarded, and the pellet was resuspended in 3 mL/g of ice-cold 10 mM Tris-HCl/0.32M sucrose, pH 7.4, and centrifuged again at 31,000× g for 20 min at 4 °C. After centrifugation, the pellets were resuspended in 1 mL of 50mM Tris-HCl, pH 7.4, and stored at −80 °C.
The inhibition constant [14] values of the tested ligands were determined using the Cheng and Prussoff equation [35], and the mean Ki values ± SEM were reported for at least three independent experiments.

σ1R = molecular target: T2, σ1R (Cavia porcellus, UniProt Q60492); test: σ1R competitive binding assay with [3H](+)-pentazocine; settings: [3H](+)-pentazocine 5 nM; Guinea pig brain membrane; 90 min at 37 °C
T2 construct: 100 μg of the brain membrane from male Guinea pigs; from tissue; host or cells: brain membranes of male guinea pigs
Source text: For the σ1R assay, [^3H]Pentazocine (Perkin Elmer, Boston, MA, USA) was used as the radioligand to define the σ1R binding affinity of the test compounds, and the protocol followed the references published before with minor modification. […] Afterward, the filter paper collection, signal counting procedure, and data analysis were in line with the study of [^3H]DTG mentioned above.

T2 sequence (Q60492 whole entry): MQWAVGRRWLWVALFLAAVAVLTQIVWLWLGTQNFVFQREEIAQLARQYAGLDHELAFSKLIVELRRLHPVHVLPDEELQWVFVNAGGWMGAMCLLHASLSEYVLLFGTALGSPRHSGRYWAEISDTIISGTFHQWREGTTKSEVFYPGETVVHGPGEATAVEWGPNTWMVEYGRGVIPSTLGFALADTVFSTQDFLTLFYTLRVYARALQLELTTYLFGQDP

Structure (SMILES) | Ki (σ2R/TMEM97 [3]) [nM] | Ki (σ2R/TMEM97 [4]) [nM] | Ki (σ1R) [nM] | other results
COc1cc2c(cc1OC)CN(CCCCNC(=O)c1cc([125I])cc(OC)c1OC)CC2 [[^125I]RHM-4] |  |  |  | Kd (σ2R/TMEM97 [1]; SD rat liver membranes, saturation binding, 100 nM (+)-pentazocine added for [3H]DTG, n = 3): 0.2 nM; Bmax (binding capacity) (σ2R/TMEM97 [1]; SD rat liver membranes, saturation binding, n = 3): 3894 ± 50 fmol/mg and 3894 ± 90 fmol/mg; fold higher σ2R/TMEM97 affinity than that of [3H]DTG (σ2R/TMEM97 [1]; ratio of binding affinities of the two radioligands): ~ 50 fold; specific binding after knocking out TMEM97 [2]: completely eliminated
COc1ccc(C)cc1NC(=O)OC1CC2CCCC(C1)N2CCCCCCN (centres unmarked) [SV119, reference compound] | 44.3 ± 7.3 | 35 ± 4 |  | 
Cc1ccc2c(c1)C1CN(C)CCC1N2C(=O)CSc1nnnn1-c1ccc(Cl)cc1 (centres unmarked) [AG-205, reference compound] | 807 ± 238 | 571 ± 82.1 |  | 
Cc1ccccc1NC(=N)Nc1ccccc1C [[^3H]DTG, reference compound] |  |  |  | Kd ([2]; read-out: Kd of retained low-affinity binding site): ~300 nM
COc1cc2c(cc1OC)CN(CCCCNC(=O)c1cc(I)cc(OC)c1OC)CC2 [RHM-4] | 11.7 ± 2.4 | 0.2 ± 0.1 |  | fold increase of σ2R/TMEM97 affinity by combination of fragments 1 and 2 (σ2R/TMEM97 [4]; RHM-4 versus fragments 1 and 2): approximately 10 fold
COc1cccc2c1CCCC2CCCN1CCN(C2CCCCC2)CC1 (centres unmarked) [PB-28, reference compound] |  | 0.1 |  | 
COc1cc2c(cc1OC)CN(CCCCc1cc(-c3ccc(F)cc3)no1)CC2 [compound 4] | 0.6 ± 0.3 | 0.05 ± 0.01 | 800 ± 23 | 
CCCCN1CCc2cc(OC)c(OC)cc2C1 [compound 2] | 10.4 ± 3.4 | 7 ± 3.9 | 38 ± 3.3 | 
C=CCN(C)CCCCCCOc1ccc(C(=O)c2ccc(Br)cc2)c(F)c1 [Ro 48-8071, reference compound] | 370 ± 230 | 73 ± 32.7 |  | 
CCCCNC(=O)c1cc(C)ccc1OCCF [compound 1] | > 10000 | > 10000 | 1310 ± 87 | 
COc1cc2c(cc1OC)CN(CCc1ccc(NC(=O)c3cccc4c(=O)c5cccc(OC)c5[nH]c34)cc1)CC2 [Elacridar, reference compound] | 11.7 ± 0.7 | 0.9 ± 0.3 |  | 
COc1cc2c(cc1OC)CN(CCCCc1cc(-c3cc(C)ccc3OCCF)no1)CC2 [compound 3] | 2.3 ± 0.4 | 0.24 ± 0.02 | 715 ± 46 | 
